16 compounds from ChEMBL document CHEMBL4033708, “Synthesis and molecular docking study of some 5,6-dichloro-2-cyclopropyl-1H-benzimidazole derivatives bearing triazole, oxadiazole, and imine functionalities as potent inhibitors of urease” (Bioorg Med Chem Lett, 2017) can be followed below.

By IC50 is commonly meant the concentration at which inhibition is half-maximal.

For this assay, the target named is Urease (Canavalia ensiformis, UniProt P07374). As to the kind of experiment: Inhibition of jack bean urease using urea as substrate pretreated for 15 mins followed by substrate addition by phenol red based spectrophotometric method.
Chain of Urease (P07374 whole entry): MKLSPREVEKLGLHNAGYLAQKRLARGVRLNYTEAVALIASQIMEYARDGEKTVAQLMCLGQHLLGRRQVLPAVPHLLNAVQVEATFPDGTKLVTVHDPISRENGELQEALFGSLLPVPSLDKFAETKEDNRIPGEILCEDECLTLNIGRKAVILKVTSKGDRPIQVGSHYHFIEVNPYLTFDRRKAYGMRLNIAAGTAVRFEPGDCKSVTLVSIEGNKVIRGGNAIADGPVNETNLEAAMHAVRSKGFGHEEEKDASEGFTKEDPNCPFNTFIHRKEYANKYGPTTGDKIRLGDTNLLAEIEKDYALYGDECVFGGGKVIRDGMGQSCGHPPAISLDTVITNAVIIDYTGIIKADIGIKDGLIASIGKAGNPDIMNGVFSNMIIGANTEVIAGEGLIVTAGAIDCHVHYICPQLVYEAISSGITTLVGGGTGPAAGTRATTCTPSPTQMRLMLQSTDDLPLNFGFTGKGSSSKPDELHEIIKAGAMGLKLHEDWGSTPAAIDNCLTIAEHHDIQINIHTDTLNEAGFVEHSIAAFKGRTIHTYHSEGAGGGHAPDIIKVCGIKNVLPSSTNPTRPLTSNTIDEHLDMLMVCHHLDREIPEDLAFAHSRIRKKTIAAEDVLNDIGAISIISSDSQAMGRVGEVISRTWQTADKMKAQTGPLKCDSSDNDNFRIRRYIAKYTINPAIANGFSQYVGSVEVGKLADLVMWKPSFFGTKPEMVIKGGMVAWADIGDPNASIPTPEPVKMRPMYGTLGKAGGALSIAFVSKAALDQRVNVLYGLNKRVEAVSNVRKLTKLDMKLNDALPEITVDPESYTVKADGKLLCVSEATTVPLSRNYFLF
Regarding `CCNC(=S)NNC(=O)Cn1c(C2CC2)nc2cc(Cl)c(Cl)cc21`, the IC50 is 280 nM.

Take `O=C(Cn1c(C2CC2)nc2cc(Cl)c(Cl)cc21)N/N=C/c1ccccc1O`: the 50% inhibitory concentration (IC50) worked out at 220 nM.

Consider `O=C(Cn1c(C2CC2)nc2cc(Cl)c(Cl)cc21)N/N=C/c1ccc(F)c(Br)c1`, for which the IC50 worked out at 60 nM.

`COC(=O)Cn1c(C2CC2)nc2cc(Cl)c(Cl)cc21`: the concentration for half-maximal inhibition (IC50) came out at 1120 nM.

`O=C(Cn1c(C2CC2)nc2cc(Cl)c(Cl)cc21)N/N=C/c1ccccc1`: the IC50 was 2070 nM.

Consider `Clc1cc2nc(C3CC3)[nH]c2cc1Cl`, for which the IC50 stood at 170 nM.

For `Sc1nnc(Cn2c(C3CC3)nc3cc(Cl)c(Cl)cc32)o1`, the half-inhibitory concentration (IC50) amounted to 1340 nM.

For the compound `Cn1c(S)nnc1Cn1c(C2CC2)nc2cc(Cl)c(Cl)cc21`, the IC50 was 170 nM.

On to `NNC(=O)Cn1c(C2CC2)nc2cc(Cl)c(Cl)cc21`, for which the half-inhibitory concentration (IC50) was 1920 nM.

Regarding `O=C(Cn1c(C2CC2)nc2cc(Cl)c(Cl)cc21)N/N=C/c1cc(Br)ccc1O`, the IC50 stood at 140 nM.

On to `CCn1c(S)nnc1Cn1c(C2CC2)nc2cc(Cl)c(Cl)cc21`, for which the IC50 was found to be 380 nM.

Consider `CN(C)c1ccc(/C=N/NC(=O)Cn2c(C3CC3)nc3cc(Cl)c(Cl)cc32)cc1`, for which the half-maximal inhibitory concentration (IC50) was 1490 nM.

As to `O=C(Cn1c(C2CC2)nc2cc(Cl)c(Cl)cc21)N/N=C/c1ccc(Cl)cc1`, the IC50 stood at 290 nM.

`NC(N)=S` [THIOUREA]: the IC50 is 560 nM.

As for `CNC(=S)NNC(=O)Cn1c(C2CC2)nc2cc(Cl)c(Cl)cc21`, the IC50 was in the range of 50 to 60 nM.

Consider `O=C(Cn1c(C2CC2)nc2cc(Cl)c(Cl)cc21)N/N=C/c1cc(Cl)ccc1O`, for which the half-inhibitory concentration (IC50) was determined as 150 nM.
